Results published in patent US9574189B2, “Enzymatic encoding methods for efficient synthesis of large libraries” (Nuevolution A/S, priority 2005, dated 2017).

Target: T1, human alpha-thrombin (Homo sapiens, UniProt P00734)
T1 construct: purchased Heamatologic Technologies Inc
Test: Ki of released display molecule against thrombin, chromogenic substrate S-2238
Assay type: biochemical
Conditions: display molecule released by UV cleavage; 5 min incubation at 22° C.; nonlinear regression of Vmax; 95% confidence interval 0-13 nM
Procedure: To determine the Ki of the released display molecule against the protease thrombin, human alpha-thrombin (Heamatologic Technologies Inc.) was diluted in buffer (0.015 units/μl) and the released display molecule was added. Following 5 minutes of incubation at 22° C. a chromogenic substrate (Chromogenix catalogue number S-2238) was added and the maximum turnover (Vmax) of the enzyme was determined in a by measuring the change in absorbance at 405 nm using a Versamax reader (Molecular Devices). This was repeated for different concentrations of the released display molecule and different concentrations of substrate. The Vmax values obtained were then fitted using nonlinear regression implemented in the Prism software (Graphpad) to obtain the Ki of the display molecule.

SMILES: NC(=O)COc1ccc(Cl)cc1CNC(=O)[C@H]1CCCN1C(=O)[C@@H](N)C1CCCCC1
- Ki: 5.2 nM
